# Results taken from patent US7964647B2 (Mutual Pharmaceutical Company, Inc., priority 2007, dated 2011).
# Key:
# [1] = system: patients with acute gout flare (acute gouty arthritic attack); assay: Same acute gout flare study: safety (treatment emergent adverse events); format: in vivo, human
# Description: A sufficient number of patients are screened to enroll and randomize 300 patients (100 patients per treatment group) who meet the criteria of the American College of Rheumatology (ACR) for acute arthritis of gout. […] Secondary objectives of the study are to compare low-dose and standard-dose dosing regimens of colchicine with respect to pain, time to response and complete pain relief, interference with sleep, and signs and symptoms of inflammation and to determine the safety of colchicine when administered in the two different dosing regimens.
# Safety assessments will be made based on patient and Investigator inputs. Patients will be initially screened in the clinic for inclusion by review of medical history and concomitant medication use, physical examination, measurement of vital signs (oral temperature, sitting radial or brachial pulse rate, respiratory rate, and sitting blood pressure), body weight, and clinical laboratory testing (serum biochemistry, complete blood count, and urinalysis). After randomization, clinical laboratory tests, concomitant medication use, medical history and current complaints (AE) will be reviewed every 3 months until an acute gout flare occurs in order to ensure continued eligibility. Compliance with key inclusion/exclusion criteria (based on intervening medical history and concomitant medication use) will be re confirmed by the Gout Flare Call Center prior to authorizing the start of study drug. Following the start of study drug, patients will record any severe gastrointestinal AEs on their diaries and these will be recorded in the Case Report Form (CRF) at each clinic visit. Full physical examinations and clinical laboratory testing will be conducted at the final clinic visit (Visit 4 or Visit 5). Vital signs and body weight will be measured at each Post Flare visit (Visit 3 and 4 or 5). For those patients in whom there is an unresolved AE or clinically significant treatment emergent laboratory abnormality, there will be one additional follow up visit 14 days post flare onset (Visit 6).
# Safety analysis will be performed by coding adverse events using a standardized medical dictionary and the incidence summarized by treatment group; tabulations will be prepared of all AEs as well as by relationship and by severity. Adverse events resulting in termination and events meeting regulatory criteria for seriousness will also be tabulated separately. Descriptive statistics (mean, median, standard deviation, and range) of clinical laboratory testing results and vital sign measurements will be generated for each treatment group and change from the most recent value prior to onset of the acute gout flare calculated; no inferential testing will be performed. Treatment emergent abnormalities on physical examination will be tabulated and listed by treatment group. By patient listings of all safety data and concomitant medication use will be generated.
# clinical = settings: human, in vivo, 0.6 mg; for AUC: AUC0-τ, 0.6 mg b.i.d. x 10 days, after last dose (Day 25), healthy adults, N = 13
# Description: Subjects received a light breakfast served 60 minutes following dose administration in the morning and the evening dose was administered 90 minutes after an evening meal on Days 15 through 24 only. […] Study periods were separated by a 14-day washout. Following the single dose and the last dose of the multiple dose regimen (beginning on the mornings of Day 1 and Day 25, respectively), blood samples were collected (6 mL each) from each subject within 1 hour prior to dosing and after dose administration at study hours 0.5, 1, 1.5, 2, 3, 4, 6, 8, 10, 12, and 24 (while confined) and 36, 48, 72, and 96 (on an outpatient basis).
smiles,measurement,setting,value
"COc1cc2c(c(OC)c1OC)-c1ccc(OC)c(=O)cc1[C@@H](NC(C)=O)CC2 [Colchicine, (−)-N-[(7S,12aS)-1,2,3,10-tetramethoxy-9-oxo-5,6,7,9-tetrahydrobenzo[a]heptalen-7-yl]-acetamide]",Patients with severe TEAE: Gout,"[1]; All colchicine, N = 126",0 n
same,Patients with severe TEAE: Metabolism and Nutrition Disorders,"[1]; All colchicine, N = 126",0 n
same,Number (%) of patients with a TEAE discontinuing study,"[1]; High dose 4.8 mg, N = 52",0 n (%)
same,Number (%) of patients with a treatment emergent SAE,"[1]; High dose 4.8 mg, N = 52",0 n (%)
same,Number (%) of patients with at least one TEAE,"[1]; High dose 4.8 mg, N = 52",40 (76.9) n (%)
same,Number (%) of patients with at least one mild TEAE,"[1]; High dose 4.8 mg, N = 52",15 (28.8) n (%)
same,Number (%) of patients with at least one moderate TEAE,"[1]; High dose 4.8 mg, N = 52",15 (28.8) n (%)
same,Number (%) of patients with at least one severe TEAE,"[1]; High dose 4.8 mg, N = 52",10 (19.2) n (%)
same,Total number of TEAEs,"[1]; High dose 4.8 mg, N = 52, safety population",85
same,Patients with at least one drug-related TEAE,"[1]; High dose, N = 52",38 (73.1) n (%)
same,Patients with drug-related TEAE: Diarrhea,"[1]; High dose, N = 52",38 (73.1) n (%)
same,Patients with drug-related TEAE: Gastro-intestinal Disorders,"[1]; High dose, N = 52",38 (73.1) n (%)
same,Patients with drug-related TEAE: Nausea,"[1]; High dose, N = 52",7 (13.5) n (%)
same,Patients with drug-related TEAE: Vomiting,"[1]; High dose, N = 52",8 (15.4) n (%)
same,Patients with severe TEAE: Diarrhea,"[1]; High dose, N = 52",19.2%
same,Patients with severe TEAE: Gout,"[1]; High dose, N = 52",0 n
same,Patients with severe TEAE: Metabolism and Nutrition Disorders,"[1]; High dose, N = 52",0 n
same,Number (%) of patients with a TEAE discontinuing study,"[1]; Low dose 1.8 mg, N = 74",0 n (%)
same,Number (%) of patients with a treatment emergent SAE,"[1]; Low dose 1.8 mg, N = 74",0 n (%)
same,Number (%) of patients with at least one TEAE,"[1]; Low dose 1.8 mg, N = 74",27 (36.5) n (%)
same,Number (%) of patients with at least one mild TEAE,"[1]; Low dose 1.8 mg, N = 74",19 (25.7) n (%)
same,Number (%) of patients with at least one moderate TEAE,"[1]; Low dose 1.8 mg, N = 74",8 (10.8) n (%)
same,Number (%) of patients with at least one severe TEAE,"[1]; Low dose 1.8 mg, N = 74",0 n (%)
same,"Number (%) of patients with at least one treatment-emergent gastrointestinal AE, captured on Adverse Event CRF, All","[1]; Low dose 1.8 mg, N = 74",19 (25.7) Number (%)
same,"Number (%) of patients with at least one treatment-emergent gastrointestinal AE, captured on Adverse Event CRF, Severe","[1]; Low dose 1.8 mg, N = 74",0 Number (%)
same,"Number (%) of patients with at least one treatment-emergent gastrointestinal AE, captured on Patient Diary or Adverse Event CRF, All","[1]; Low dose 1.8 mg, N = 74",33 (44.6) Number (%)
same,"Number (%) of patients with at least one treatment-emergent gastrointestinal AE, captured on Patient Diary or Adverse Event CRF, Severe","[1]; Low dose 1.8 mg, N = 74",3 (4.1) Number (%)
same,"Number (%) of patients with at least one treatment-emergent gastrointestinal AE, captured on Patient Diary, Severe","[1]; Low dose 1.8 mg, N = 74",3 (4.1) Number (%)
same,Total number of TEAEs,"[1]; Low dose 1.8 mg, N = 74, safety population",34
same,Patients with at least one severe TEAE (any),"[1]; Low dose, N = 74",0 n
same,Patients with drug-related TEAE: Diarrhea,"[1]; Low dose, N = 74",21.6%
same,Patients with drug-related TEAE: Gastro-intestinal Disorders,"[1]; Low dose, N = 74",24.3%
same,Patients with drug-related TEAE: Vomiting,"[1]; Low dose, N = 74",0 n
same,Patients with severe TEAE: Diarrhea,"[1]; Low dose, N = 74",0 n
same,Patients with severe TEAE: Gastrointestinal Disorders,"[1]; Low dose, N = 74",0 n
same,Patients with severe TEAE: Gout,"[1]; Low dose, N = 74",0 n
same,Patients with severe TEAE: Melaena,"[1]; Low dose, N = 74",0 n
same,Patients with severe TEAE: Metabolism and Nutrition Disorders,"[1]; Low dose, N = 74",0 n
same,Patients with severe TEAE: Musculoskeletal and Connective Tissue Disorders,"[1]; Low dose, N = 74",0 n
same,Patients with severe TEAE: Nausea,"[1]; Low dose, N = 74",0 n
same,Patients with severe TEAE: Pain in Extremity,"[1]; Low dose, N = 74",0 n
same,"Number (%) of patients with at least one treatment-emergent gastrointestinal AE, captured on Adverse Event CRF, All","[1]; Standard dose 4.8 mg, N = 52",40 (76.9)^2 Number (%)
same,"Number (%) of patients with at least one treatment-emergent gastrointestinal AE, captured on Adverse Event CRF, Severe","[1]; Standard dose 4.8 mg, N = 52",10 (19.2) Number (%)
same,"Number (%) of patients with at least one treatment-emergent gastrointestinal AE, captured on Patient Diary or Adverse Event CRF, All","[1]; Standard dose 4.8 mg, N = 52",49 (94.2)^2 Number (%)
same,"Number (%) of patients with at least one treatment-emergent gastrointestinal AE, captured on Patient Diary or Adverse Event CRF, Severe","[1]; Standard dose 4.8 mg, N = 52",18 (34.6) Number (%)
same,"Number (%) of patients with at least one treatment-emergent gastrointestinal AE, captured on Patient Diary, All","[1]; Standard dose 4.8 mg, N = 52",48 (92.3)^2 Number (%)
same,"Number (%) of patients with at least one treatment-emergent gastrointestinal AE, captured on Patient Diary, Severe","[1]; Standard dose 4.8 mg, N = 52",13 (25.0) Number (%)
same,Proportion of patients with vomiting,[1]; high-dose 4.8 mg,15.4%
same,Occurrence of severe diarrhea,[1]; low-dose group 1.8 mg,not occurring
same,Occurrence of vomiting,[1]; low-dose group 1.8 mg,not occurring
same,Proportion of patients with diarrhea,[1]; standard dose 4.8 mg,73.1%
same,Proportion of patients with gastrointestinal side effects,[1]; standard dose 4.8 mg,73.1%
same,Tmax,clinical,1 h
same,AUC,clinical; MEAN,29.1 ng·h/mL
same,AUC,clinical; MEDIAN,28.5 ng·h/mL
same,Cmax,clinical; po,2.71 ng/mL
same,half-life,clinical; po,~5 h
